From US6936723B2, “Synthetic salicylihalamides, apicularens and derivatives thereof” (Board of Regents, The University of Texas System, priority 2000, dated 2005) come the findings set out here.

Data set [1] has as its system human melanoma cell line SK-MEL-5. Nature of the data set: Growth inhibition of the SK-MEL-5 human melanoma cell line (MTT assay). The format is cell-based. To be noted: for GI50: Homo sapiens; for growth inhibitory activity in the cell-based assay: SK-MEL-5 cell-based assay. Here is the method:
A cell-based assay looking for growth inhibition of the SK-MEL 5 human melanoma cell line was performed.
For orientation: Formazan colour is commonly taken as a measure of viable cells.

The test system of data set [2] is H1299. Nature of the data set: Growth inhibition of tumor cell lines compared to TAXOL: H1299. Conditions: Homo sapiens, NCI-H1299. The format is cell-based. Here is the method: (§1) In addition, the ability of compounds 323a/c and 343 to inhibit growth of a number of tumor cell lines was tested and compared to TAXOL's ability to inhibit growth of these tumor cell lines.

The subject of data set [3] is H2009. Nature of the data set: Growth inhibition of tumor cell lines compared to TAXOL: H2009. To be noted: Homo sapiens, NCI-H2009. The format is cell-based. Here is the method: as §1
Data set [4] concerns H358. Nature of the data set: Growth inhibition of tumor cell lines compared to TAXOL: H358. The format is cell-based. To be noted: Homo sapiens, NCI-H358. Here is the method:
as §1

For data set [5], the system named is H2058. Nature of the data set: Growth inhibition of tumor cell lines compared to TAXOL: H2058. The format is cell-based. Here is the method: as §1
The subject of data set [6] is H175. Nature of the data set: Growth inhibition of tumor cell lines compared to TAXOL: H175. The format is cell-based. Here is the method: as §1
Data set [7] deals with H1264. Nature of the data set: Growth inhibition of tumor cell lines compared to TAXOL: H1264. The format is cell-based. Here is the method: as §1
For data set [8], the target named is T1, purified reconstituted V-ATPase from bovine brain (Bos taurus, UniProt P23956+P61420+Q29466+Q2TA24).
T1 construct: from tissue; host or cells: bovine brain
Nature of the data set: Inhibition of purified reconstituted V-ATPase (proton pumping). The format is biochemical. From the text: Therefore, the present invention provides a method for inhibiting the proton-pumping activity of V-ATPase by contacting V-ATPase, either in vitro or in vivo with the compounds of the present invention. […] See Boyd, M. R. et al., J Pharmacol. Exp. Ther. 297, 114-120 (2001); see also, PCT publication WO 00/51589 of Boyd et al. V-ATPase is composed of an ATPase domain and a proton translocating membraneous channel. […] See Crider, Xie and Stone, J. Biol. Chem. 269:17379-17381 (1994) for the experimental procedure for binding. […] See Example 7 and Table 5 below. See also Bill. Crider, Xie and Stone, J Biol. Chem. 269:17379-17381 (1994).
Others in the art typically use crude membrane preparations to assay V-ATPase activity.

Data set [9] deals with NCI 60-cell line panel. Nature of the data set: NCI 60-cell line human tumor screen (sulforhodamine B). The format is cell-based. Conditions: 48 hours incubation, 10^−6 to 10^−10 molar. The source says:
The NCI 60-cell line human tumor screen is a measure of the effectiveness of a compound for inhibiting or killing various human cancers. It is a set of 60 different cancer cell lines against which chemical compounds can be tested against to determine if the compound has anti-cancer activity. Each compound has an individual “fingerprint” based on effectiveness in killing each of the 60 cancer cell lines.
The anti-cancer activity of the synthesized (+)- and (−)-salicylihalamide-A compounds of the present invention (compounds 78 in FIG. 10 and 301a/301c in FIG. 14.) was indistinguishable. […] Salicylihalamide derivatives, showing increased stability over natural salicylihalamide, were tested in the NCI 60 cell-line screen. This screen is an art recognized model. Prior to assay, synthesized compounds were stored in dimethylsulfoxide at −70° C. Five different test concentrations of each compound were prepared by diluting the stock solution into complete medium. Sample concentrations were 2× the final concentration and range from 10^−6 and 10^−10 molar. An aliquot of each concentration of each compound was added to separate microtiter wells containing the respective cell lines in culture medium. The plates were incubated for 48 hours at 37° C. with 5% CO2 and 100% humidity. Adherent cells were fixed by addition of cold 50% trichloracetic acid and incubation at 4° C. for 60 minutes. Suspended cells were fixed to the bottom of the well by addition of 80% trichloracetic acid. The supernatant was removed from each well and then each well was washed with deionized water and allowed to dry. Sulforhodamine B solution was added to each well and allowed to incubate for 10 minutes at room temperature. Unbound sulforhodamine B was removed by washing with 1% acetic acid. The wells were allowed to dry. Bound sulforhodamine B was solubilized using 10 mM Tris base and the optical density at 515 nanometers was determined.

For data set [10], the system named is SK-MEL-28 cells. Nature of the data set: Anti-cancer activity against SK-MEL-28 cells. The format is cell-based, human. To be noted: at 20 μM. From the text: The inventor has accomplished the first synthesis of both […] and (−)-salicylihalamide A. The synthesis utilizes a highly efficient, trans-selective ring-closing olefin metathesis for the assembly of the benzolactone skeleton and can be readily adapted to obtain a variety of analogs. […] This cell line is one of the cell lines in the NCI 60 cell line screen.
The absolute configuration of natural salicylihalamide A (1a) was originally misassigned in Boyd et al., 1997. The correct configuration is represented by structure 89. The ultimate proof for this assignment came from a crystallographic analysis of a p-bromobenzoate derivative of salicylihalamide 90, prepared from 73 in a manner similar to the synthesis of 74. […] (−)-salicylihalamide A does have chemotherapeutic activity. […] This cell line is one of the cell lines in the NCI 60 cell line screen.

Where [11] appears, read: 48 h, SK-MEL-5, growth determined 2 days after addition by MTT assay, triplicate assays at 4 concentrations, read-out: GI50.
Where [12] appears, read: purified reconstituted V-ATPase from bovine brain, inhibition of proton pumping, read-out: IC50.

One may read the GI50 as the concentration that inhibits growth by half. As a reminder, the IC50 is the concentration needed to halve the response being measured.

Like-named read-outs stand apart in the source and are kept apart here.

Regarding `CC/C=C\C=C/C(=O)N/C=C/C[C@H]1C[C@@H](O)[C@@H](C)C/C=C/Cc2cccc(O)c2C(=O)O1` [301a/301c], the GI50 in [1] (SK-MEL-5, 48 h) amounted to 30 nM; in data set [2], 3.2 nM; in data set [3] it was 2 nM; in data set [4], 1.6 nM; in data set [5] it was 3.2 nM; in [6] it was 0.2 nM. The GI50 in [7] is 31.6 nM. In data set [8], this compound registered an IC50 of 0.34 nM. Also, in data set [9] (listed as 1:1 mixture of salicylihalamide A (1) and C22-E isomer 211), the “activity / differential cytotoxicity profile in the NCI 60-cell line screen” value is given as “indistinguishable, within the limits of experimental error, from natural salicylihalamide A”.

Take `CCC=CC=CC(=O)NC=CCC1CC2CC(O)CC(Cc3cccc(O)c3C(=O)O1)O2` (stereo not shown) [Apicularen A]: the GI50 in data set [1] (setting [11]) turned out to be 6 nM. Moreover, the IC50 in data set [8] was less than 1 nM.

As for `CO/C1=C\C(C)=C\[C@@H](C)[C@@H](O)[C@@H](C)C/C(C)=C/C=C/[C@H](OC)[C@@H]([C@@H](C)[C@@H](O)[C@H](C)[C@@]2(O)C[C@@H](O)[C@H](C)[C@@H](C(C)C)O2)OC1=O` [Bafilomycin A, reference compound], in data set [8] (setting [12]), the IC50 came out at 3.1 nM.

For the compound `C=CCOC(=O)/C=C/CC1C[C@@H](O)[C@@H](C)C/C=C/Cc2cccc(O)c2C(=O)O1` (stereo partly shown) [Compound 335b], in data set [1] (setting [11]), the GI50 was more than 20000 nM. Also, the “growth inhibitory activity in the cell-based assay” value (“growth inhibitory activity” below) in [1] is “completely inactive”. In addition, in data set [8] (setting [12]), the IC50 turned out to be 230 nM.

With `CC/C=C\C=C/C(=O)N(/C=C/C[C@H]1C[C@@H](O)[C@@H](C)C/C=C/Cc2cccc(O)c2C(=O)O1)C(=O)N/C=C/C[C@H]1C[C@@H](O)[C@@H](C)C/C=C/Cc2cccc(O)c2C(=O)O1` [Compound 343], the GI50 in [1] (SK-MEL-5, 48 h) is 40 nM; in data set [2] it was 5 nM; in data set [3] it was 1.6 nM; in data set [4] it was 10 nM; in [5], 6.3 nM; in data set [6] it was 0.2 nM. The compound also yielded a GI50 in [7] of 31.6 nM. Further, half-maximal inhibition in data set [8] (IC50) was put at 0.37 nM.

With `CCCCCCC(=O)N(/C=C/C[C@H]1C[C@@H](O)[C@@H](C)C/C=C/Cc2cccc(O)c2C(=O)O1)C(=O)N/C=C/C[C@H]1C[C@@H](O)[C@@H](C)C/C=C/Cc2cccc(O)c2C(=O)O1` [Compound 345], the GI50 in data set [1] (setting [11]) stood at 600 nM. Moreover, in data set [8], half-maximal inhibition (IC50) required 3 nM.

Turning to `CCCCCCC(=O)N/C=C/C[C@H]1C[C@@H](O)[C@@H](C)C/C=C/Cc2cccc(O)c2C(=O)O1` [Compound 346], the GI50 in [1] (setting [11]) amounted to 380 nM. The compound also gave an IC50 in data set [8] of 0.8 nM.

As for `C[C@H]1C/C=C/Cc2cccc(O)c2C(=O)OC(C/C=C/NC(=O)C#Cc2ccccc2)C[C@H]1O` (stereo partly shown) [Compound 349], in data set [1] (setting [11]), the GI50 turned out to be 300 nM. The compound further registered an IC50 in [8] of 0.75 nM.

With `CCCCC#CC(=O)N/C=C/CC1C[C@@H](O)[C@@H](C)C/C=C/Cc2cccc(O)c2C(=O)O1` (stereo partly shown) [Compound 350], the GI50 in data set [1] (setting [11]) was 300 nM. The IC50 in data set [8] is 1 nM.

For the compound `CCCCCOC(=O)N/C=C/C[C@H]1C[C@@H](O)[C@@H](C)C/C=C/Cc2cccc(O)c2C(=O)O1` [Compound 351], in data set [1] (setting [11]), the GI50 was 500 nM. In [8], this compound had an IC50 of 0.2 nM.

On to `CCCCCSC(=O)N/C=C/CC1C[C@@H](O)[C@@H](C)C/C=C/Cc2cccc(O)c2C(=O)O1` (stereo partly shown) [Compound 352], for which the GI50 in data set [1] (setting [11]) was determined as 450 nM. The compound also had an IC50 in [8] of 1.8 nM.

On to `CC(C)=CCC/C(C)=C/CC/C(C)=C/COC(=O)N/C=C/CC1C[C@@H](O)[C@@H](C)C/C=C/Cc2cccc(O)c2C(=O)O1` (stereo partly shown) [Compound 353], for which, in data set [1] (setting [11]), the GI50 is more than 20000 nM. Moreover, the IC50 in [8] is more than 1800 nM.

Regarding `CCCCCCCC(=O)OCC[C@H]1C[C@@H](O)[C@@H](C)C/C=C/Cc2cccc(O)c2C(=O)O1` [Compound 355], the GI50 in data set [1] (setting [11]) was more than 20000 nM. For the same compound, in [1], the “growth inhibitory activity” value is “completely inactive”. Besides, in [8] (setting [12]), the IC50 was more than 1000 nM.

Consider `CCCCCOC(=O)N/C=C/C[C@H]1C[C@@H](O)[C@@H](C)CCCCc2cccc(O)c2C(=O)O1` [Compound 361], for which the GI50 in data set [1] (setting [11]) amounted to 8000 nM. Further, the “growth inhibitory activity” value in data set [1] is recorded as “retained a significant, although attenuated, level of growth inhibitory activity”. In [8], inhibition was half-maximal at 9.3 nM (IC50).

`CCCCCOC(=O)NCCC[C@H]1C[C@@H](O)[C@@H](C)CCCCc2cccc(O)c2C(=O)O1` [Compound 362]: in data set [1] (setting [11]), the GI50 is more than 20000 nM. Besides, the “growth inhibitory activity” value in data set [1] was “completely abolished antiproliferative potential”. Moreover, half-maximal inhibition in [8] (IC50) was put at 75.7 nM.

Turning to `CCCCCOC(=O)N/C=C/C[C@H]1C[C@@H](O)[C@@H](C)C/C=C/Cc2cccc(OC(=O)c3ccccc3)c2C(=O)O1` [Compound 366], the GI50 in data set [1] (setting [11]) worked out at 1000 nM. The IC50 in data set [8] (setting [12]) turned out to be 300 nM.

As for `CC(=O)O[C@H]1C(=O)[C@@]2(C)[C@H]([C@H](OC(=O)c3ccccc3)[C@]3(O)C[C@H](OC(=O)[C@H](O)[C@@H](NC(=O)c4ccccc4)c4ccccc4)C(C)=C1C3(C)C)[C@]1(OC(C)=O)CO[C@@H]1C[C@@H]2O` [TAXOL, reference compound], the concentration for 50% growth inhibition (GI50) in data set [2] (cell line H1299, read-out: GI50) amounted to 5 nM; in data set [3] (cell line H2009, read-out: GI50), 5 nM; in [4] (cell line H358, read-out: GI50) it was 5 nM; in data set [5] (cell line H2058, read-out: GI50), 5 nM; in [6] (cell line H175, read-out: GI50), 5 nM; in data set [7] (cell line H1264, read-out: GI50), 5 nM.

As for (+)-salicylihalamide A [Compound 87], the IC50 in data set [8] (setting [12]) was 270 nM. Also, the “anti-cancer activity against SK-MEL-28 cells” value in data set [10] is “inactive”. Also, the “activity / differential cytotoxicity profile in the NCI 60-cell line screen” value was “completerly inactive” in data set [9] and “devoid of growth inhibitory activity” in data set [9] (listed as ent-301a).
